From patent US10172876B2, “Use of ginsenoside M1 for treating IgA nephropathy” (priority 2014, dated 2019)

Assays:
[1] = tested on: mice model of IgA nephropathy (IgAN); test: Renal histopathology (H&E) in IgAN mice; assay type: in vivo; conditions: day 28, 60 mg/kg daily oral gavage, vs disease control (FIG. 3)
Experimental: (§1) B-cell-deficient mice were obtained from the Academia Sinica (Professor John T. Kung, Institute of Molecular Biology, Taipei, Taiwan) and maintained at the animal center of the National Defense Medical Center (Taipei, Taiwan). IgAN was induced by daily injection of purified IgA anti-phosphorylcholine antibodies and pneumococcal C-polysaccharide antigen (PnC). All animal experiments were performed with the approval of the Institutional Animal Care and Use Committee of the National Defense Medical Center and complied with the NIH Guide for the Care and Use of Laboratory Animals.
(§2) Ginsenoside M1, 20-O-β-D-glucopyranosyl-20(S)-protopariaxadiol (named LCHK168 below), was prepared by methods known in the art, such as those described in Taiwan Patent Application No. 094116005 (1280982) and U.S. Pat. No. 7,932,057. The mice were treated daily with 60 mg/kg LCHK168 or with the vehicle, by oral gavage throughout the experiment, the first dose being given 2 day before disease induction.
Body weight was measured weekly. Urine samples were collected in metabolic cages weekly and urine protein was determined. […] The percentage of glomeruli showing proliferation, neutrophil infiltration, sclerosis, or periglomerular inflammation was determined by counting 50 randomly sampled glomeruli by light microscopy at a magnification of 400×.

[2] = tested on: mice model of IgA nephropathy (IgAN); test: Urine protein and renal function in IgAN mice; assay type: in vivo
Experimental: as §1, §2
Body weight was measured weekly. Urine samples were collected in metabolic cages weekly and urine protein was determined. Serum samples were collected on days 14 and 28 to measure serum levels of blood urea nitrogen (BUN) and creatinine (Cr). For renal histopathology, the tissues were fixed in 10% buffered formalin and embedded in paraffin, and then sections (3 μm) were prepared and stained with hematoxylin and eosin (H&E). The percentage of glomeruli showing proliferation, neutrophil infiltration, sclerosis, or periglomerular inflammation was determined by counting 50 randomly sampled glomeruli by light microscopy at a magnification of 400×.

NLRP3 = test: Western blot of NLRP3 in IgA-IC stimulated DCs; assay type: cell-based, mouse; conditions: β-actin loading control (FIG. 14)
Experimental: (§3) Dendritic cells (DCs) maturation was determined by the upregulation of costimulatory molecule expression. Cells were treated with IgA-IC, LCHK168 (1, 2 μM) and stained with mAbs specific for mouse CD40, CD80, and CD86 and then analyzed by flow cytometry.
Each protein sample was run on a 8% SDS-PAGE gel and the proteins were electro blotted on to a polyvinylidene difluoride membrane, which was then incubated for 1 h at room temperature in blocking buffer (Tris-buffered saline containing 5% skim milk) and then overnight at 4° C. with rabbit antibodies against NLRP3 or β-actin. After being washed, the membrane was incubated for 1 h at room temperature with HRP-conjugated goat anti-rabbit IgG antibody in the same buffer; then bound antibody was detected using UVP Biospectrum.

memory CD4+ T cells = test: Flow cytometry of splenocytes for memory CD4+ T cells in IgAN mice; assay type: in vivo; conditions: 60 mg/kg daily oral gavage, vs disease control (FIG. 11)
Experimental: as §1
(§4) Ginsenoside M1, 20-O-β-D-glucopyranosyl-20(S)-protopariaxadiol (named LCHK168 below), was prepared by methods known in the art, such as those described in Taiwan Patent Application No. 094116005 (1280982) and U.S. Pat. No. 7,932,057. […]
Splenocytes from the mice were treated with Tris-buffered ammonium chloride to eliminate erythrocytes, washed and resuspended in RPMI1640 medium supplemented with 10% fetal calf serum, Hepes buffer, L-glutamine, and penicillin/streptomycin. The cells were triple-stained for activated T cell subtypes using FITC-conjugatedanti-mouse CD44, phycoerythrin-conjugated anti-mouse CD62 antibodies, and allophycocyanin-conjugated anti-mouse CD4 and analyzed using a FACSCalibur.

Dendritic cells (DCs) = test: IgA-IC stimulated dendritic cell maturation by flow cytometry; assay type: cell-based, mouse; conditions: LCHK168 1, 2 μM, flow cytometry (FIG. 13)
Experimental: as §3

[3] = tested on: reactive oxygen species (ROS); test: Measurement of reactive oxygen species (ROS) in renal tissue of IgAN mice; assay type: in vivo; conditions: vs disease control (FIG. 10)
Experimental: as §1, §4
To measure ROS levels in renal tissue, the samples were incubated at room temperature with Krebs-Hepes buffer containing 1.25 mM lucigenin (Sigma, St. Louis, Mo., USA) as substrate, and luminescence counts were measured in duplicate at 15-s intervals on a multilabel microplate reader (Hidex). ROS activity was expressed as relative luminescence units (RLU) per 15 minutes per milligram of organ dry weight (i.e., RLU/15 min/mg) or as RLU/15 min/ml.

[4] = tested on: mice model of IgA nephropathy (IgAN); test: IHC of renal tissue for infiltrating leukocytes and Collagen IV in IgAN mice; assay type: in vivo; conditions: day 28, 60 mg/kg daily oral gavage
Experimental: as §1, §2
For IHC, formalin-fixed and paraffin-embedded tissue sections or frozen sections were incubated overnight at 4. C with anti-bodies against CD3, F4/80, CD4, CD8, CD11c, Collagen IV, diluted in DAKO antibody dilution buffer (DAKO), and then for 1 h at room temperature with horseradish peroxidase (HRP)-conjugated second antibodies (DAKO) in the same buffer; in the case of the HRP-conjugated antibodies, DAB (DAKO) was also added. Hematoxylin was used to counterstain nuclei. Positive cells was counted at a magnification of 400× in 20 consecutive glomeruli or in 20 randomly selected fields of the tubule interstitial compartment in the cortical area by Pax-It quantitative image analysis software.

TLR2 = test: Real-time RT-PCR of renal TLR2 mRNA in IgAN mice; assay type: in vivo; conditions: 60 mg/kg daily oral gavage
Experimental: as §1, §2
Renal cortex RNA was extracted using TRIzol reagent according to the manufacturer's instructions, and RT-PCR was used to measure TLR2 gene expression. […] Real-time quantification was performed using a Applied Biosystems according to the manufacturer's instructions. […]

[5] = day 14, 60 mg/kg daily oral gavage, between disease control, IgAN+LCHK168 and normal control

CC(C)=CCC[C@](C)(O[C@@H]1OC(CO)[C@@H](O)[C@@H](O)C1O)[C@H]1CC[C@]2(C)C1[C@H](O)CC1[C@@]3(C)CC[C@H](O)C(C)(C)C3CC[C@]12C (stereo partly drawn) [LCHK168, 20-O-β-D-glucopyranosyl-20(S)-protopanaxadiol]
renal lesion (proliferation, crescents, sclerosis, neutrophil infiltration, periglomerular leukocyte infiltration, tubular atrophy) [1]: significantly inhibited
urine protein levels (ratio of urine protein to creatinine) ([2]; IgAN mice, 60 mg/kg daily oral gavage, day 14 to day 28, vs vehicle-treated disease control (FIG. 1)): markedly inhibited
proteinuria compared to normal untreated controls ([2]; IgAN mice, 60 mg/kg daily oral gavage, vs normal untreated controls (FIG. 1)): mild proteinuria
serum levels of BUN [2, 5]: no significant difference
serum levels of Cr [2, 5]: no significant difference
serum levels of BUN ([2]; day 28, 60 mg/kg daily oral gavage, vs disease control (FIG. 2A)): much better renal function
serum levels of Cr ([2]; day 28, 60 mg/kg daily oral gavage, vs disease control (FIG. 2B)): much better renal function
NLRP3 protein expression in DCs (NLRP3): significantly decreased
memory CD4+ T cells in splenocytes (memory CD4+ T cells): significant reduction
expression level of CD40 in DCs (Dendritic cells (DCs)): significantly lowered
expression level of CD80 in DCs (Dendritic cells (DCs)): significantly lowered
expression level of CD86 in DCs (Dendritic cells (DCs)): significantly lowered
increase in renal tissues ROS levels ([3]; day 14, 60 mg/kg daily oral gavage): greatly inhibited
increase in ROS levels in renal tissues ([3]; day 28, 60 mg/kg daily oral gavage): substantially inhibited
renal infiltration of CD3+ T cells ([4]; vs disease control (FIG. 4)): significantly decreased
renal infiltration of F4/80+ monocytes/macrophages ([4]; vs disease control (FIG. 5)): significantly decreased
renal infiltration of CD4+ T cells ([4]; vs disease control (FIG. 6)): significantly decreased
renal infiltration of CD8+ T cells ([4]; vs disease control (FIG. 7)): significantly decreased
renal infiltration of CD11c+ dendritic cells ([4]; vs disease control (FIG. 8)): significantly decreased
renal fibrosis (Collagen IV staining) ([4]; vs disease control (FIG. 9)): significantly decreased
TLR2 mRNA levels in the kidney (relative to GAPDH) (TLR2; 14 days, difference vs IgAN control mice (FIG. 12)): not statistically significant
TLR2 mRNA levels in the kidney (relative to GAPDH) (TLR2; 28 days, vs IgAN control mice (FIG. 12)): significantly lower
